These results are taken from patent publication EP4682145A1, “BENZOHETEROCYCLIC COMPOUND, AND PREPARATION METHOD THEREFOR AND USE THEREOF” (Cascade Pharmaceuticals, Inc., priority 2023, dated 2024).

The assay deals with T1, human FFAR1 (GPR40) (Homo sapiens, UniProt O14842).
T1 construct: Flag; expressed in transfected cells; host or cells: HEK293T
The experiment in a line: NFAT-RE-based reporter gene activity assay (Dual-Glo luciferase) for GPR40 agonistic activity in co-transfected HEK293T cells. Format: cell-based. The settings on record: 4-hour treatment. The essentials: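 HEK293T cells co-transfected with human FFAR1, NFAT-RE firefly luciferase and TK-Renilla plasmids; 24 h later treated 4 h with 10 half-log compound dilutions from 1 µM. Firefly/Renilla ratio normalised to DMSO; EC50 from four-parameter fit.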
In general terms: In a reporter assay the amount or activity of a reporter protein is the signal.

T1 sequence (O14842 whole entry): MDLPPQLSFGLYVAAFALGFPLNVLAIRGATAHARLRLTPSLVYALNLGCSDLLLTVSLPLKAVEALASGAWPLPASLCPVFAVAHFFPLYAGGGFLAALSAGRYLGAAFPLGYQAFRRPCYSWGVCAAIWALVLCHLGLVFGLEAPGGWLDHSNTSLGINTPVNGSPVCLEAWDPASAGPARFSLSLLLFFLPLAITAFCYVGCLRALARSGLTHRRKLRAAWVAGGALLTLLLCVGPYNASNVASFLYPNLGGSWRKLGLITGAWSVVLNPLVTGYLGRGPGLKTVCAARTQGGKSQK

The EC50 is the concentration at which the effect is half-maximal. A lower EC50 goes with an effect from little substance. Take `COc1ccc(F)c(N2CCC(c3oc4cc([C@@H](CC(=O)O)C5CC5)ccc4c3-c3ccc(C(C)(C)C)cc3)CC2)c1` [Compound 169]: the 50% effective concentration (EC50) was 0.1 to 0.5 µM. For the same compound, the “Efficacy (%)” value (class symbols) is reported as “††† (Efficacy (%) > 150)”.
